Laboratory results: patent US20240065988A1, “COMBINED USE OF KETAMINE AND RETIGABINE (EZOGABINE) FOR THE TREATMENT OF PSYCHIATRIC DISORDERS” (Yeda Research and Development Co. Ltd., priority 2021, published 2024)
“Also recorded” adds a separate entry of the source.

Test system: mice (C57BL/6N)
Test: Forced swim test (FST), pharmacological manipulation of KCNQ
Assay type: in vivo, mouse
Procedure: C57BL/6N and CD-1 (ICR) male mice aged 10 weeks old were used in these experiments. Ketamine hydrochloride (Ketaset, Zoetis, Germany) was diluted in 0.9% NaCl solution (saline) and administered i.p at 1, 5 or 10 mg/kg BW, depending on the experiment design. The KNCQ inhibitor, XE991 (Alomone labs; Cat #: X-100) was diluted in 5% DMSO and administered i.p at 1 or 3 mg/kg BW. The KCNQ activator, Retigabine (Alomone labs; Cat #: R-100), was diluted in 5% DMSO and administered i.p at 1 or 5 mg/kg BW. As control, mice were injected with a DMSO-saline solution (5% DMSO). For all experiments, mice were tested 30 minutes after injection in the FST or over a period of 36 hours after injection in the social boxes.
Previous studies in rodents have shown that KCNQ function can be regulated with highly-specific agonists and antagonists [V. Barrese et al., Annu Rev Pharmacol Toxicol (2018) 58: 625-648]. To further explore the KCNQ channel as a potential therapeutic target of ketamine, it was examined whether pharmacological inhibition of KCNQ alone or in combination with ketamine had any effects on behavior. To accomplish this, a new cohort of mice received two injections with a combination of drugs. […] To assess the effects of ketamine, XE991 (KCNQ inhibitor), and its combination, these mice were exposed to a FST (FIG. 7A, left). […] The inventors then sought to test whether the effects of ketamine could be mimicked, increased or amplified using retigabine, also known as ezogabine, a selective KCNQ (Kcnq2/3) channel activator. Similarly to the previous experiment, mice were treated with saline, (R,S)-ketamine (10 mg/kg BW), or ketamine in combination with two different concentrations of retigabine (1 and 5 mg/kg BW) (FIG. 7A, right).
Next, it was examined whether retigabine could increase the sustained antidepressant-like effects produced by a single injection of ketamine in mice. Accordingly, a new cohort of mice were treated with a single dose of saline, ketamine, or ketamine in combination with retigabine (1 mg/kg) and antidepressant-like behaviors were assessed using the FST, 5—and 7-days post-injection (FIG. 8A). […] Next, as a potential therapeutic strategy for major depressive disorder (MDD), the synergistic effects of ketamine and retigabine was further investigated by testing whether or not retigabine can increase the antidepressant-like effects produced by ketamine in mice. […] Next, it was tested whether retigabine can produce similar synergistic effects in combination with traditional antidepressants. […] Lastly, using a new cohort of Nex-Cre-Ai9 mice, it was tested whether the adjunctive treatment of ketamine with retigabine, or escitalopram alone, could modify the expression of Kcnq2 mRNA in FACS sorted cells from the vHipp (FIG. 8F).

CNC1(c2ccccc2Cl)CCCCC1=O (racemic) [ketamine, (R,S)-ketamine]
immobility time during the FST ((R,S)-ketamine 10 mg/kg/BW, dose series (FIG. 8E, FIG. 26A)): significant reduction of immobility time
antidepressant-like effects in the FST ((R,S)-ketamine 1 and 5 mg/kg/BW): failed to produce antidepressant-like effects
immobility time during the FST (ketamine 10 mg/kg BW alone vs saline (FIGS. 23A-B)): significant decrease in immobility time; also recorded: significant effect
FST effect at day 7 post-injection (single dose of ketamine alone): disappeared by day 7
duration of the FST effect post-injection (single dose of ketamine alone): up to five days
immobility time during the FST, sustained effect (single dose of ketamine alone, several days post-injection (day 5)): significant decrease in immobility time
